Assay results reported in ChEMBL document CHEMBL4680222, “Sensitive fluorogenic substrates for sirtuin deacylase inhibitor discovery” (Eur J Med Chem, 2020).
*1 amine or outer side, *2 acyl side, *3 side chain or, on linkers, in order; H or OH if unused. Where a SMILES comes first, the peptide text is derived from it. The star is where a group is joined. AMC = Cc1cc(=O)oc2cc(N*)ccc12; Suc = O=C(CCC(=O)[*:2])[*:1]; Decanoyl = CCCCCCCCCC(=O)*

How the values were obtained:
[1] = target: T1, NAD-dependent protein deacetylase sirtuin-7 (Homo sapiens) (UniProt Q9NRC8); experiment: Substrate activity at human N-terminal His-tagged SIRT7 (68 to 354 residues) expressed in Escherichia coli at 0.5 uM measured after 2 hrs in presence of NAD+ and trypsin by fluorescence assay
T1 sequence (whole entry): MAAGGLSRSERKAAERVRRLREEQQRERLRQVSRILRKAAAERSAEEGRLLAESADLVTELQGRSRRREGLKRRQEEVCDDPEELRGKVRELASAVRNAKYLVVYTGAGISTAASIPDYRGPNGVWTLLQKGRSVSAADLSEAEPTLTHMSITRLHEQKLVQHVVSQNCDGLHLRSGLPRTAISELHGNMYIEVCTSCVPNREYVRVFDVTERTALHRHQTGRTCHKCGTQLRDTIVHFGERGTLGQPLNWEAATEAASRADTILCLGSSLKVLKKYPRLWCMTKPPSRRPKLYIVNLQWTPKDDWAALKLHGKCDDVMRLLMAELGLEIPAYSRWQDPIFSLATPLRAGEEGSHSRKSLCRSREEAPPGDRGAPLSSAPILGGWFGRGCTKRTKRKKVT

[2] = target: NAD-dependent protein deacylase sirtuin-6 (Homo sapiens) (UniProt Q8N6T7); experiment: Substrate activity at human N-terminal His-tagged SIRT6 (1 to 355 residues) expressed in Escherichia coli at 0.5 uM measured after 2 hrs in presence of NAD+ and trypsin by fluorescence assay
[3] = target: NAD-dependent protein deacylase sirtuin-5, mitochondrial (Homo sapiens) (UniProt Q9NXA8); experiment: Substrate activity at human N-terminal His-tagged SIRT5 (34 to 302 residues) expressed in Escherichia coli at 0.5 uM measured after 2 hrs in presence of NAD+ and trypsin by fluorescence assay
[4] = target: T2, NAD-dependent protein deacetylase sirtuin-3, mitochondrial (Homo sapiens) (UniProt Q9NTG7); experiment: Substrate activity at human N-terminal His-tagged SIRT3 (122 to 391 residues) expressed in Escherichia coli at 0.5 uM measured after 2 hrs in presence of NAD+ and trypsin by fluorescence assay
T2 sequence (whole entry): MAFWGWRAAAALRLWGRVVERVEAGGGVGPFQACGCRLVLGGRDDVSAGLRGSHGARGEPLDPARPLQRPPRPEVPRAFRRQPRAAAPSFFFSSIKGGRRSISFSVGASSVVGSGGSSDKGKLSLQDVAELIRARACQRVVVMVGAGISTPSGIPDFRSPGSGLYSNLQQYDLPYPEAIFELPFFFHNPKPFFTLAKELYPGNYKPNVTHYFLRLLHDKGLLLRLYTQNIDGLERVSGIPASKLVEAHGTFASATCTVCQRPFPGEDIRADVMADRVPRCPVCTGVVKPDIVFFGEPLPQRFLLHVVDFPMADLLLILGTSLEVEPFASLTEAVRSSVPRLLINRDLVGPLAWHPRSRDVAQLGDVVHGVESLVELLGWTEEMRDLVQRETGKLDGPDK

[5] = target: T3, NAD-dependent protein deacetylase sirtuin-2 (Homo sapiens) (UniProt Q8IXJ6); experiment: Substrate activity at human N-terminal His-tagged SIRT2 (56 to 356 residues) expressed in Escherichia coli at 0.5 uM measured after 2 hrs in presence of NAD+ and trypsin by fluorescence assay
T3 sequence (whole entry): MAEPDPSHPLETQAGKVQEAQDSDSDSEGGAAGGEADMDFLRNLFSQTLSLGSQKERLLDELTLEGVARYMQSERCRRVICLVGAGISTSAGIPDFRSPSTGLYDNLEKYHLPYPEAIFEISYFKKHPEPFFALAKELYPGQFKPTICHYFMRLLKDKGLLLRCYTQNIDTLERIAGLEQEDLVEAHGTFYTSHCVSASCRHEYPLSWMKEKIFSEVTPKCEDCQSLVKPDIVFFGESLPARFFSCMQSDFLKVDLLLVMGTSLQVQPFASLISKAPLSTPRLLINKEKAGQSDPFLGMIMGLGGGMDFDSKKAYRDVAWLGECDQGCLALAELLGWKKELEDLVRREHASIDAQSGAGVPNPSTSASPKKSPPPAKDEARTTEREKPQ

[6] = target: T4, NAD-dependent protein deacetylase sirtuin-1 (Homo sapiens) (UniProt Q96EB6); experiment: Substrate activity at human N-terminal His-tagged SIRT1 (183 to 664 residues) expressed in Escherichia coli at 0.5 uM measured after 2 hrs in presence of NAD+ and trypsin by fluorescence assay
T4 sequence (whole entry): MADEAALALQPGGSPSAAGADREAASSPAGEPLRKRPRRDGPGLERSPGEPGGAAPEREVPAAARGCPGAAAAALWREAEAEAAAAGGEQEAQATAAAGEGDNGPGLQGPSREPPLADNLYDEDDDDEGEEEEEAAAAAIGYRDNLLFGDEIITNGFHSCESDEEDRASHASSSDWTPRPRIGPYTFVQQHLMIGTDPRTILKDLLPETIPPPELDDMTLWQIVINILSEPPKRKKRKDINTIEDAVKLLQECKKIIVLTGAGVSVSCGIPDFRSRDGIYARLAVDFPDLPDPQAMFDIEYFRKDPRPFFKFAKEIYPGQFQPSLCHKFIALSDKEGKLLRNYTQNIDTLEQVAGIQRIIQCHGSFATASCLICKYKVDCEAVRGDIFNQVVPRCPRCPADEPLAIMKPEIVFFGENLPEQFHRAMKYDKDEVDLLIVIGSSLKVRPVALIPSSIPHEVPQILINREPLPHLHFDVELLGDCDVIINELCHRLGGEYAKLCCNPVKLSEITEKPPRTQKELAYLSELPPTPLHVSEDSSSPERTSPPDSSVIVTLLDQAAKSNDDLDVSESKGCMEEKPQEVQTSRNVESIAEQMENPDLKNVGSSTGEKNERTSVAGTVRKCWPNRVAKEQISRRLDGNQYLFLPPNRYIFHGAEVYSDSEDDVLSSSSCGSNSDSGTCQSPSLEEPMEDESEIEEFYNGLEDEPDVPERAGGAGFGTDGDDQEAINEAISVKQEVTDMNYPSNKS

[7] = target: T1, NAD-dependent protein deacetylase sirtuin-7 (Homo sapiens); experiment: Substrate activity at human N-terminal His-tagged SIRT7 (68 to 354 residues) expressed in Escherichia coli at 5 uM measured after 2 hrs in presence of NAD+ and trypsin by fluorescence assay
[8] = target: NAD-dependent protein deacylase sirtuin-6 (Homo sapiens) (UniProt Q8N6T7); experiment: Substrate activity at human N-terminal His-tagged SIRT6 (1 to 355 residues) expressed in Escherichia coli at 5 uM measured after 2 hrs in presence of NAD+ and trypsin by fluorescence assay
[9] = target: NAD-dependent protein deacylase sirtuin-5, mitochondrial (Homo sapiens) (UniProt Q9NXA8); experiment: Substrate activity at human N-terminal His-tagged SIRT5 (34 to 302 residues) expressed in Escherichia coli at 5 uM measured after 2 hrs in presence of NAD+ and trypsin by fluorescence assay
[10] = target: T2, NAD-dependent protein deacetylase sirtuin-3, mitochondrial (Homo sapiens); experiment: Substrate activity at human N-terminal His-tagged SIRT3 (122 to 391 residues) expressed in Escherichia coli at 5 uM measured after 2 hrs in presence of NAD+ and trypsin by fluorescence assay
[11] = target: T3, NAD-dependent protein deacetylase sirtuin-2 (Homo sapiens); experiment: Substrate activity at human N-terminal His-tagged SIRT2 (56 to 356 residues) expressed in Escherichia coli at 5 uM measured after 2 hrs in presence of NAD+ and trypsin by fluorescence assay
[12] = target: T4, NAD-dependent protein deacetylase sirtuin-1 (Homo sapiens); experiment: Substrate activity at human N-terminal His-tagged SIRT1 (183 to 664 residues) expressed in Escherichia coli at 5 uM measured after 2 hrs in presence of NAD+ and trypsin by fluorescence assay
[13] = target: T1, NAD-dependent protein deacetylase sirtuin-7 (Homo sapiens); experiment: Substrate activity at human N-terminal His-tagged SIRT7 (68 to 354 residues) expressed in Escherichia coli at 50 uM measured after 2 hrs in presence of NAD+ and trypsin by fluorescence assay
[14] = target: NAD-dependent protein deacylase sirtuin-6 (Homo sapiens) (UniProt Q8N6T7); experiment: Substrate activity at human N-terminal His-tagged SIRT6 (1 to 355 residues) expressed in Escherichia coli at 50 uM measured after 2 hrs in presence of NAD+ and trypsin by fluorescence assay
[15] = target: NAD-dependent protein deacylase sirtuin-5, mitochondrial (Homo sapiens) (UniProt Q9NXA8); experiment: Substrate activity at human N-terminal His-tagged SIRT5 (34 to 302 residues) expressed in Escherichia coli at 50 uM measured after 2 hrs in presence of NAD+ and trypsin by fluorescence assay
[16] = target: T2, NAD-dependent protein deacetylase sirtuin-3, mitochondrial (Homo sapiens); experiment: Substrate activity at human N-terminal His-tagged SIRT3 (122 to 391 residues) expressed in Escherichia coli at 50 uM measured after 2 hrs in presence of NAD+ and trypsin by fluorescence assay
[17] = target: T3, NAD-dependent protein deacetylase sirtuin-2 (Homo sapiens); experiment: Substrate activity at human N-terminal His-tagged SIRT2 (56 to 356 residues) expressed in Escherichia coli at 50 uM measured after 2 hrs in presence of NAD+ and trypsin by fluorescence assay
[18] = target: T4, NAD-dependent protein deacetylase sirtuin-1 (Homo sapiens); experiment: Substrate activity at human N-terminal His-tagged SIRT1 (183 to 664 residues) expressed in Escherichia coli at 50 uM measured after 2 hrs in presence of NAD+ and trypsin by fluorescence assay

Sequence of NAD-dependent protein deacylase sirtuin-5, mitochondrial (Homo sapiens) (Q9NXA8 37-310 limits assumed): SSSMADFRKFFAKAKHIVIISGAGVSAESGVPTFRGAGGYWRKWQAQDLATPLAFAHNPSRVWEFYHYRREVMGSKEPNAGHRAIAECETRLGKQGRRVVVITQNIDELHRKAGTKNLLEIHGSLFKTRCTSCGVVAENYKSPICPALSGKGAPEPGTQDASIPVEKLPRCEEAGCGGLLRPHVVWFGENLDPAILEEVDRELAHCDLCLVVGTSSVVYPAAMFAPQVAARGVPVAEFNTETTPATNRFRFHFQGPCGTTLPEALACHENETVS
Sequence of NAD-dependent protein deacylase sirtuin-6 (Homo sapiens) (Q8N6T7 whole entry, the tested form may be a part): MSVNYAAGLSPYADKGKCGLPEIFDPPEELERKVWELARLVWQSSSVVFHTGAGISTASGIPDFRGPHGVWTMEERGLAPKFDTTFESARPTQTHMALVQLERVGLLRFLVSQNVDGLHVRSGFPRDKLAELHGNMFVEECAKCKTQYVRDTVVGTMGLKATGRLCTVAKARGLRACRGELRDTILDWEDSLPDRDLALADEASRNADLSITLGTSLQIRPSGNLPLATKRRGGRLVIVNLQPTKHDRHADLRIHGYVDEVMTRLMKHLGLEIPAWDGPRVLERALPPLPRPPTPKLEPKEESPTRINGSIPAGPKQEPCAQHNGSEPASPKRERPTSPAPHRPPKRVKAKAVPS

| SMILES | Activity [1] | Activity [2] | Activity [3] | Activity [4] | Activity [5] | Activity [6] | Activity [7] | Activity [8] | Activity [9] | Activity [10] | Activity [11] | Activity [12] | Activity [13] | Activity [14] | Activity [15] | Activity [16] | Activity [17] | Activity [18] |
| --- | --- | --- | --- | --- | --- | --- | --- | --- | --- | --- | --- | --- | --- | --- | --- | --- | --- | --- |
| CC(=O)NCCCC[C@H](NC(=O)[C@H](CO)NC(=O)[C@H](Cc1ccccc1)NC(=O)[C@H](CC(=O)O)NC(C)=O)C(=O)Nc1ccc2c(C)cc(=O)oc2c1 (Ac-DFSK(Ac)-{AMC}) | 0.39 RFU | 0.48 RFU | 0.26 RFU | 0.32 RFU | 0.31 RFU | 0.31 RFU | 0.65 RFU | 0.36 RFU | 0.29 RFU | 1.29 RFU | 1.13 RFU | 3.38 RFU | 0.58 RFU | 0.58 RFU | 0.81 RFU | 7.07 RFU | 6.75 RFU | 21.2 RFU |
| CCCCCCCCCC(=O)NCCCC[C@H](NC(=O)[C@H](CCCNC(=N)N)NC(=O)[C@H](CC(C)C)NC(=O)[C@H](CC(=O)O)NC(C)=O)C(=O)Nc1ccc2c(C)cc(=O)oc2c1 (Ac-DLRK(Decanoyl)-{AMC}) | 0.34 RFU | 0.51 RFU | 0.24 RFU | 0.4 RFU | 0.26 RFU | 0.26 RFU | 0.3 RFU | 0.62 RFU | 0.36 RFU | 0.51 RFU | 1.03 RFU | 0.89 RFU | 1.5 RFU | 1.5 RFU | 1.54 RFU | 1.79 RFU | 2.6 RFU | 2.28 RFU |
| CC[C@H](C)[C@H](NC(C)=O)C(=O)N[C@@H](CCCNC(=N)N)C(=O)N[C@H](C(=O)N[C@@H](CCCCNC(=O)CCC(=O)O)C(=O)Nc1ccc2c(C)cc(=O)oc2c1)[C@@H](C)CC (Ac-IRIK(Suc)-{AMC}) | 0.29 RFU | 0.4 RFU | 0.32 RFU | 0.49 RFU | 0.21 RFU | 0.21 RFU | 0.34 RFU | 0.44 RFU | 0.82 RFU | 0.64 RFU | 0.33 RFU | 0.55 RFU | 1.89 RFU | 1.89 RFU | 2.63 RFU | 2.47 RFU | 1.03 RFU | 2.05 RFU |
| CCCCCCCCCC(=O)NCCCC[C@H](NC(=O)[C@H](CCC(N)=O)NC(=O)[C@@H](NC(=O)[C@H](CCCCN)NC(C)=O)C(C)C)C(=O)Nc1ccc2c(C)cc(=O)oc2c1 (Ac-KVQK(Decanoyl)-{AMC}) | 0.6 RFU | 0.46 RFU | 0.28 RFU | 0.51 RFU | 1.68 RFU | 1.68 RFU | 0.44 RFU | 0.74 RFU | 0.24 RFU | 0.73 RFU | 1.72 RFU | 0.74 RFU | 1.09 RFU | 1.09 RFU | 0.78 RFU | 0.85 RFU | 3.19 RFU | 1.1 RFU |
| CCCCCCCCCC(=O)NCCCC[C@H](NC(=O)[C@H](CCCCN)NC(=O)[C@@H]1CCCN1C(=O)[C@H](CC(N)=O)NC(C)=O)C(=O)Nc1ccc2c(C)cc(=O)oc2c1 (Ac-NPKK(Decanoyl)-{AMC}) | 0.29 RFU | 0.39 RFU | 0.31 RFU | 0.51 RFU | 0.29 RFU | 0.29 RFU | 0.49 RFU | 0.42 RFU | 0.34 RFU | 0.79 RFU | 1.18 RFU | 0.76 RFU | 1.32 RFU | 1.32 RFU | 1.99 RFU | 3.19 RFU | 5.3 RFU | 2.87 RFU |
